In US9820483B2, “Microbial composition” (Rohm and Haas Company, priority 2011, dated 2017):
Like-named read-outs stand apart in the source and are kept apart here.

Experiments:
E. coli ATCC #10536 = experiment: Synergy test: high resolution MBC microtiter plate assay in phosphate buffer containing 35% dipropylene glycol, 15 seconds contact; assay type: cell-based, Escherichia coli; conditions: E. coli 10536, complete kill in 15 seconds, phosphate buffer with 35% DPG
Source text: One measure of synergy is the industrially accepted method described by Kull, F. C.; Eisman. P. C.; Sylwestrowicz, H. D. and Mayer, R. L., in Applied Microbiology 9:538-541 (1961), using the ratio determined by the formula: Qa/QA÷Qb/QB=Synergy Index (“SI”) wherein: QA=concentration of compound A (first component) in percent, acting alone, which produced an end point (MBC of Compound A). […]=concentration of compound A in percent, in the mixture, which produced an end point. QB=concentration of compound B (second component) in percent, acting alone, which produced an end point (MBC of Compound B). Qb=concentration of compound B in percent, in the mixture, which produced an end point.
When the sum of Qa/QA and Qb/QB is greater than one, antagonism is indicated. […] The lower the SI, the greater is the synergy shown by that particular mixture. The minimum biocidal concentration (MBC) of a microbicide is the lowest concentration tested under a specific set of conditions that provides complete kill of the tested microorganisms.
Synergy tests were conducted using standard microtiter plate assays with phosphate buffer containing 35% dipropylene glycol (DPG). In this method, a wide range of combinations of chemicals was tested by conducting high resolution MBC assays of Component (A) in the presence of various concentrations of Component (B). High resolution MBCs were determined by adding varying amounts of microbicide to one column of a microtiter plate and doing subsequent ten-fold dilutions using an automated liquid handling system to obtain a series of closely spaced endpoints. The MBC plate was inoculated one column at a time with the test microorganism. An aliquot of the inoculated well was transferred at 15 seconds to a plate containing a neutralizing agent (D/E Neutralizing Broth), mixed and held for 5 minutes before being transferred to a growth plate containing trypticase soy broth (TSB). The TSB plate was incubated at 37° C. and read for the presence/absence of growth at 24 hours. The lowest level tested that provided complete kill (as evidenced by no growth in the microtitre plate) of the test organisms in 15 seconds is the minimum biocidal concentration (MBC).
The synergy of the combinations of the present invention was determined against a bacterium, Esherichia coli (E. coli—ATCC #10536), at a concentration of approximately 1×10^8 bacteria per mL. This microorganism is representative of natural contaminants in many consumer and industrial applications.

[1] = test system: Escherichia coli (E. coli—ATCC #10536); experiment: Automated assessment of efficacy in model surfactant base (2.85% sodium cocoyl glycinate + 1.85% sodium lauroamphoacetate, pH 10), 15 seconds exposure, delta OD450/OD590 in D/E quench; assay type: cell-based; conditions: for MBC: in 2.85% sodium cocoyl glycinate + 1.85% sodium lauroamphoacetate solution at pH 10, E. coli
Procedure: Solutions were prepared such that the concentrations of the surfactant components and test actives were 1.1× the final desired concentration in order to allow for dilution with the bacterial inoculum in the test. The solutions were manually adjusted to pH 10.0 by dropwise addition of sodium hydroxide solution, as measured with a pH meter at ambient temperature.
Tests were conducted using standard microtiter plate assays using an automated liquid handling system. 270 μl of the surfactant test solution was pipetted into each well of the microtitre plate and 30 μl of the bacterial suspension was then added. After exactly 15 seconds of bacterial exposure, a 30 μl volume of bacterial cells was withdrawn and transferred to 270 μl of D/E quench solution. After 5 minutes in the D/E quench, the optical density (OD) was measured for each plate in turn at two specific wavelengths (450 nm and 590 nm). These provide a dual check of antimicrobial activity, as the OD450 reading is specific for the yellow colour of D/E quench when bacterial growth is observed, whereas OD590 is specific for the initial purple colour of the D/E quench which is retained if no bacterial growth is observed. After the time zero OD measurements, plates were then incubated at 37° C. overnight (16 hours) before repeating the OD measurements. Delta OD values were calculated by subtracting […]. Bacterial growth is observed as an increase in OD450 and a decrease in ΔOD590. To identify antibacterially efficacious systems (those preventing appreciable bacterial growth after incubation), the following threshold changes in OD readings have been adopted: if (1). OD450 increases by less than 0.2 absorbance unit on incubation and (2). OD590 decreases by less than 0.35 unit on incubation. Conversely, where OD450 increases by more than 0.2 AU and OD590 decreases by more than 0.35 unit after incubation, corresponding to a colour shift from purple to yellow, the test system allows bacterial growth and is not deemed efficacious. Four replicate measurements in the same plate have been made for each test system. The number of replicate wells showing either bacterial growth or no growth is also readily assessed by eye by following the colour change.
Dose responses for individual components and binary mixtures of actives at a fixed concentration ratio were generated by sequential dilution of liquors with further surfactant solution to obtain a series of endpoints.
In some selected cases, the combinations were also tested at the weight ratio 1:1.
The method used was the same as in the above Table.

[2] = test system: Staphylococcus aureus (10788 strain); experiment: Antimicrobial efficacy of actives against S. aureus in water, 15 seconds contact, NMBS; assay type: cell-based; conditions: for NMBS: 15 s
Procedure: Selected materials were also tested against a representative Gram positive Staphylococcus aureus.
The following assay describes the testing of 8 materials using 6 dilutions across half of a 96-well micro titre plate (MTP). Using this approach it is possible to assay 16 actives (without replicates) with one full dilution plate, replicating this set up in two halves of the plate columns, 1-6 and 7-12.
Bacterial stock (30 μl) was then added to the prepared 270 μl of the solution of actives in the Screening Plate and mixed, using a multichannel pipette with 8 tips to aspirate and dispense the same volume of bacterial stock in parallel to 8 wells in rows A-H. After a contact time of 15 seconds, the mixtures were quenched by transferring 30 μl volumes of the mixtures into the 270 μl D/E neutralising solution in the prepared dilution plate, using aspiration to mix. After exactly 5 minutes in the D/E neutralising solution, […] were transferred from column 1 to column 2 of the Dilution MTP and mixed, before transferring further 30 μl volumes from column 2 into column 3. This process was repeated serially diluting the bacteria across the plate to column 6.
30 μl volumes from each well in the Dilution MTP were transferred onto pre-labelled segment of Tryptone Soya Agar (TSA) plates starting from the lowest bacterial concentration (highest dilution, column 6) to the highest bacterial concentration (column 1). The TSA plates were allowed to stand for ca. 2 hours so that the 30 μl inocula spots could dry and the plates were then inverted and incubated overnight at 37° C. before enumerating the bacterial colonies at the labelled dilutions to determine the effects of the actives on bacterial growth.
Mean bacterial survival numbers NMBS (expressed in Log CFU/ml) are obtained by first determining the segment of the TSA plate where the number of bacterial colonies is countable. From the colony number in this segment. NMBS is calculated by the formula: NMBS=log {Ncol·10^DF·100/3} Here, Ncol is the colony count, and DF is the dilution factor taken from the MTP-well corresponding to the TSA plate segment (i.e. DF may range from 1 for the quench, to 6 for the highest dilution). The factor 100/3 is a conversion factor from the volume of the inocula spot to one milliliter.
Every assay test was performed in triplicate.
Thus, a value of NMBS as of about 7 corresponds to a count of about […] from the fifth dilution well, i.e. with DF=5. Such a count of about 7 is generally observed when bacteria are exposed to non-biocidal materials. In case no surviving colonies are observed in any segment of the TSA plate, this is interpreted as complete kill and a value of NMBS=0 is reported.
S. aureus Bacterial stock was prepared as shown below and the antibacterial efficacy of the active was carried out as explained earlier for E. Coli.
An overnight culture of Staphylococcus aureus (10788 strain) was inoculated onto a Tripticase Soy Agar (TSA) plate and grown for ca. 18 hrs at 37° C. The culture of S. aureus was washed from the plate using sterile saline (0.85% NaCl) solution and a sterile spreader and suspended in 50 ml saline. This suspension was separated into equal volumes and centrifuged at 4000 rpm for 15 minutes. Following centrifugation the pellet was re-suspended in saline to give a final concentration of 0.35 OD620 equivalent to about 10^8 cells per milliliter for this particular organism. Here. OD620 indicates the absorbance of a sample in a cuvette of 1.0 cm path length at a wavelength of 620 nm. This bacterial stock was used for assaying against antimicrobial actives (in triplicate).

[3] = test system: Escherichia coli (10536 strain); experiment: Antimicrobial efficacy in water, 15 seconds contact, mean bacterial survival NMBS on TSA plates; assay type: cell-based; conditions: E. coli, 15 s
Procedure: Antimicrobial efficacy is tested against a representative pathogenic bacterial organism, Gram negative Escherichia coli. Concentrations of actives are expressed in terms of the percentage weight/volume (% w/v) throughout the following Examples. […] Here, OD620 indicates the absorbance of a sample in a cuvette of 1.0 cm path length at a wavelength of 620 nm. This bacterial stock was used for assaying against antimicrobial actives (in triplicate). The following assay describes the testing of 8 materials using 6 dilutions across half of a 96-well micro titre plate (MTP). […] 1M solutions of the test actives were prepared in dimethylsulphoxide (DMSO). […] This MTP was labelled as the “Screening plate”. […] The composition of the neutralising solution was as follows: pancreatic digest of casein, 5.0 g/L; […] 270 μl of tryptone diluent solution was added to all the remaining wells of the Dilution MTP (columns 2-6). […] After a contact time of 15 seconds, the mixtures were quenched by transferring 30 μl volumes of the mixtures into the 270 μl D/E neutralising solution in the prepared dilution plate, using aspiration to mix. […] Mean bacterial survival numbers NMBS (expressed in Log CFU/ml) are obtained by first determining the segment of the TSA plate where the number of bacterial colonies is countable. From the colony number in this segment. NMBS is calculated by the formula: […] DF may range from 1 for the quench, to 6 for the highest dilution). The factor 100/3 is a conversion factor from the volume of the inocula spot to one milliliter. Every assay test was performed in triplicate. The reported mean bacterial survival results are the average of such a triplet, the error is the corresponding standard deviation. […] Such a count of about 7 is generally observed when bacteria are exposed to non-biocidal materials.

S. aureus ATCC 6538 = experiment: Synergy of terpinyl alcohols with phenolic compounds in water, 15 seconds contact, plate count log reduction; assay type: cell-based, Staphylococcus aureus; conditions: 0.1% alone
Procedure: Liquid actives were used directly. Solid actives were dissolved in alcohol and a 50% stock was made.
The culture was grown overnight in Tryptone soya agar. It was suspended in saline (0.85% NaCl) to a con. of 1.5×10^8-5×10^8 cells/ml
To 9 ml water the actives were added to give the desired concentration. 1 ml of the culture was added and mixed. After 15 seconds contact 1 ml aliquot was removed and added to a neutraliser and kept for 5 minutes. A control of untreated cells was similarly processed. It was then diluted and plated. The plates were incubated at 37° C. for 24 hours. The colonies on the plates were counted. The counts were converted to log10. The log. no. of survivors was determined and log reduction calculated.

[4] = Escherichia coli, ATCC10536, 15 s, read-out: MBC

## C=C(C)C1CC=C(C)C(O)C1 (stereo not drawn) [2-methyl-5-(prop-1-en-2-yl)cyclohex-2-enol]
E. coli ATCC #10536
  MBC of the component acting alone (QA or QB; Qa or Qb with the other component at 0): 0.7 weight %
[1]; [4]
  MBC: 4000 µg/mL
[1]; single active at 0.2% w/v
  No. of replicates showing growth (out of 4): 4
  Δ OD 590 nm = OD590 (time = 16 hours) − OD590 (time zero), Mean: 0.61
  ΔOD 450 nm = OD450 (time = 16 hours) − OD450 (time zero), Mean: −0.51
[1]; single active at 0.3% w/v
  No. of replicates showing growth (out of 4): 4
  Δ OD 590 nm = OD590 (time = 16 hours) − OD590 (time zero), Mean: 0.59
  ΔOD 450 nm = OD450 (time = 16 hours) − OD450 (time zero), Mean: −0.50
[1]; single active at 0.4% w/v
  No. of replicates showing growth (out of 4): 4
  Δ OD 590 nm = OD590 (time = 16 hours) − OD590 (time zero), Mean: 0.47
  ΔOD 450 nm = OD450 (time = 16 hours) − OD450 (time zero), Mean: −0.35
[1]; single active at […] w/v
  No. of replicates showing growth (out of 4): 4
  Δ OD 590 nm = OD590 (time = 16 hours) − OD590 (time zero), Mean: 0.63
  ΔOD 450 nm = OD450 (time = 16 hours) − OD450 (time zero), Mean: −0.50
[2]; 0.5% w/v alone, S. aureus
  NMBS: 7.27 log CFU/ml

## CCCc1ccccc1O [2-n-propylphenol]
[3]; 0.06% w/v alone
  NMBS: 7.68 log CFU/ml
[1]
  MBC: 0.175 % w/v
[1]; single active at 0.05% w/v
  No. of replicates showing growth (out of 4): 4
  Δ OD 590 nm = OD590 (time = 16 hours) − OD590 (time zero), Mean: 0.46
[1]; single active at […] w/v
  No. of replicates showing growth (out of 4): 4
  Δ OD 590 nm = OD590 (time = 16 hours) − OD590 (time zero), Mean: 0.66
[2]; 0.03% w/v alone, S. aureus
  NMBS: 7.12 log CFU/ml
[2]; […] 2-propylphenol alone, S. aureus
  bacterial kill (in words): Complete bacterial kill
[2]; component alone, against S. aureus, in water
  MBC: 0.25 % w/v

## CC=Cc1ccccc1O [2-propenylphenol]
S. aureus ATCC 6538
  Log reduction S. aureus ATCC 6538: 1.92

## C=C(C)C1CCC(C)CC1O (stereo not drawn) [isopulegol, 5-methyl-2-(prop-1-en-2-yl)cyclohexanol]
[3]; 0.3% w/v alone
  NMBS: 0 log CFU/ml
[3]; 0.4% w/v alone
  NMBS: 0 log CFU/ml
[3]; […] w/v alone
  NMBS: 7.77 log CFU/ml
[3]; component alone, in water
  MBC: 0.3 % (w/v)
[1]; [4]
  MBC: > 5000 µg/mL
[1]; single active at 0.3% w/v
  No. of replicates showing growth (out of 4): 4
  Δ OD 590 nm = OD590 (time = 16 hours) − OD590 (time zero), Mean: 0.61
  ΔOD 450 nm = OD450 (time = 16 hours) − OD450 (time zero), Mean: −0.49
[1]; single active at 0.5% w/v
  No. of replicates showing growth (out of 4): 2
  Δ OD 590 nm = OD590 (time = 16 hours) − OD590 (time zero), Mean: 0.42
  ΔOD 450 nm = OD450 (time = 16 hours) − OD450 (time zero), Mean: −0.09
[1]; single active at […] w/v
  No. of replicates showing growth (out of 4): 4
  Δ OD 590 nm = OD590 (time = 16 hours) − OD590 (time zero), Mean: 0.59
  ΔOD 450 nm = OD450 (time = 16 hours) − OD450 (time zero), Mean: −0.54
